We go through 52 compounds from patent US20090170838A1, “Bicycloheteroaryl compounds as P2X7 modulators and uses thereof” (Renovis, Inc., priority 2005, published 2009).

Bounds are passed on as bounds.

The target of the first experiment is T1, P2X7 receptor (Homo sapiens, UniProt Q99572).
T1 construct: host or cells: THP-1 cells differentiated with LPS and IFN-γ
T1 sequence (Q99572 1-595): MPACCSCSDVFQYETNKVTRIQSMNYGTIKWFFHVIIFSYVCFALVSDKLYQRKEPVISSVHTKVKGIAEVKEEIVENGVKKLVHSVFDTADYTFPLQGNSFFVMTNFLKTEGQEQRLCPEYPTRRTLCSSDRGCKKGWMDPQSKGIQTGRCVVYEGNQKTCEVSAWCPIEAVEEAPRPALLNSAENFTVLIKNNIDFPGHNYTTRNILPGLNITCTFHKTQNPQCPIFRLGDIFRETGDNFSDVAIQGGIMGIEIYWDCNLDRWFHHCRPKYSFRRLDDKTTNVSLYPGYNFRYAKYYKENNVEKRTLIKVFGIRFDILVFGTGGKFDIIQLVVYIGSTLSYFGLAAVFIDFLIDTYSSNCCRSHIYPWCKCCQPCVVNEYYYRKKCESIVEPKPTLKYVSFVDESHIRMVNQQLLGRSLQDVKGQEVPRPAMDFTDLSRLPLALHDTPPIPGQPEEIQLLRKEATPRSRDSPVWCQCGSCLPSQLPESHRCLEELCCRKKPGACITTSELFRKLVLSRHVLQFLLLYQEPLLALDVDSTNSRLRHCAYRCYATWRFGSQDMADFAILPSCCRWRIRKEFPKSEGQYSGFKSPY
Nature of the experiment: IL-1β release assay (BzATP-stimulated, LPS/IFN-γ differentiated THP-1 cells, ELISA). It counts as cell-based. The settings on record: at 0.1 μM (asterisk symbols). The method, then: THP-1 cells (ATCC Cat # 285-IF-100) are plated in 96 well plates at a concentration of 200,000 cells per well and allowed to differentiate in RPMI-1640 media (ATCC Cat # 30-2001) containing 10% FBS, 100 IU/mL penicillin, 100 ug/mL streptomycin, 100 ng/mL LPS and 100 ng/mL IFN-γ for 16 hours. Following differentiation, the cells are treated for an additional 2 hours in RPMI-1640 media containing 100 IU/mL penicillin, 100 ug/mL streptomycin and fresh LPS at 100 ng/mL. The cells are then pretreated for 30 minutes with the compound of interest at the appropriate concentration in RPMI media containing 100 IU/mL penicillin, 100 ug/mL streptomycin. Following the pretreatment 2′,3′-O-(4-benzoylbenzoyl)-adenosine 5′-triphosphate (Sigma Aldrich Cat# B6396) is added to a final concentration of 250 uM and the cells incubated for an additional 45 minutes. 30 uL of cell supernatant is then collected and […] levels determined via ELISA (R&D systems Cat. # HSLB50) according to manufacturer's recommendations using the Tecan Safire plate reader. Background adjusted IL-1β levels of drug treated and non-treated cells are used to calculate the percent inhibition.
(In general: An ELISA detects its analyte on a solid surface through an enzyme-linked reagent.)
`CCN1CCCC1Cn1ccc2c(NC(=O)CC34CC5CC(C)(CC(C)(C5)C3)C4)cccc2c1=O` (stereo not shown) [Compound 772] came in with an inhibition at 0.1 µM of 50 to 75%.
Still for that read-out and setting: next, `CC12CC3CC(C)(C1)CC(CC(=O)Nc1cccc4c1CCN(Cc1ccc(F)cc1F)C4=O)(C3)C2` [Compound 765]: 25 to 50%.
For `CC12CC3CC(C)(C1)CC(CC(=O)Nc1cccc4c1CCN(Cc1ccccn1)C4=O)(C3)C2` [Compound 807], the inhibition at 0.1 µM lay in the range of 0 to 25%.
Take `CC12CC3CC(C)(C1)CC(CC(=O)Nc1cccc4c(=O)n(Cc5ccc6c(c5)OCCO6)ccc14)(C3)C2` [Compound 803]: the inhibition at 0.1 µM was not below 75%.
On the same count and under the same terms, to `CC12CC3CC(C)(C1)CC(CC(=O)Nc1cccc4c(=O)n(Cc5ccc(F)c(F)c5)ccc14)(C3)C2` [Compound 819] belongs 50 to 75%.
`O=C(CC12CC3CC(CC(C3)C1)C2)Nc1cccc2c(=O)n(C(CO)Cc3c[nH]cn3)ccc12` (stereo not shown) [Compound 883]: the inhibition at 0.1 µM is not below 75%.
With `CC12CC3CC(C)(C1)CC(CC(=O)Nc1cccc4c1CCN(Cc1ccc5c(c1)OCO5)C4=O)(C3)C2` [Compound 814], the inhibition at 0.1 µM was not below 75%.
Consider `CC12CC3CC(C)(C1)CC(CC(=O)Nc1cccc4c(=O)n(CC5COCCO5)ccc14)(C3)C2` (stereo not shown) [Compound 762], for which the inhibition at 0.1 µM lay in the range of 50 to 75%.
On the same count and under the same terms, to `O=C(CC12CC3CC(CC(C3)C1)C2)Nc1cccc2c(=O)n(CC3CCCN3)ccc12` (stereo not shown) [Compound 809] belongs not below 75%; to `Cc1cc(Cn2ccc3c(NC(=O)CC45CC6CC(C)(CC(C)(C6)C4)C5)cccc3c2=O)no1` [Compound 761], 50 to 75%.
For the compound `O=C(CC12CC3CC(CC(C3)C1)C2)Nc1cccc2c1CCN(Cc1ccc(F)c(F)c1)C2=O` [Compound 799], the inhibition at 0.1 µM was not below 75%.
The compound `CC12CC3CC(C)(C1)CC(CC(=O)Nc1cccc4c(=O)n(Cc5ccncc5)ccc14)(C3)C2` [Compound 755] returned an inhibition at 0.1 µM not below 75%.
Compound `CC12CC3CC(C)(C1)CC(CC(=O)Nc1cccc4c1CCN(Cc1c(F)cccc1F)C4=O)(C3)C2` [Compound 840] yielded an inhibition at 0.1 µM not below 75%.
Still for that read-out and setting: to `NC(=O)CN1CCc2c(NC(=O)CC34CC5CC(CC(C5)C3)C4)cccc2C1=O` [Compound 828] belongs not below 75%.
The same measure, in the same setting: to `CC(c1cccnc1)n1ccc2c(NC(=O)CC34CC5CC(CC(C5)C3)C4)cccc2c1=O` (stereo not shown) [Compound 837] belongs not below 75%; to `O=C(CC12CC3CC(CC(C3)C1)C2)Nc1cccc2c1CCN(CC1COc3ccccc3O1)C2=O` (stereo not shown) [Compound 872], not below 75%; to `CC(C)(CN1CCOCC1)N1CCc2c(NC(=O)CC34CC5CC(CC(C5)C3)C4)cccc2C1=O` [Compound 843], not below 75%.
The same measure, in the same setting: next, `CC12CC3CC(C)(C1)CC(CC(=O)Nc1cccc4c1CCN(Cc1ccc5c(c1)OCCO5)C4=O)(C3)C2` [Compound 823]: not below 75%.
Turning to `CN1CCCC1CCn1ccc2c(NC(=O)CC34CC5CC(CC(C5)C3)C4)cccc2c1=O` (stereo not shown) [Compound 788], the inhibition at 0.1 µM was not below 75%.
Still for that read-out and setting: next, `CN1CCN(CCCN2CCc3c(NC(=O)CC45CC6CC(CC(C6)C4)C5)cccc3C2=O)CC1` [Compound 878]: not below 75%.
Same read-out and setting: to `NC(=O)[C@@H](CC1CCCCC1)n1ccc2c(NC(=O)CC34CC5CC(CC(C5)C3)C4)cccc2c1=O` [Compound 881] belongs not below 75%; to `CC12CC3CC(C)(C1)CC(CC(=O)Nc1cccc4c(=O)n(Cc5ccc(F)cc5)ccc14)(C3)C2` [Compound 754], not below 75%.
The same measure, in the same setting: next, `O=C(CC12CC3CC(CC(C3)C1)C2)Nc1cccc2c(=O)n(CCCN3CCCC3)ccc12` [Compound 789]: not below 75%.
In the case of `O=C(CC12CC3CC(CC(C3)C1)C2)Nc1cccc2c(=O)n(C[C@@H]3CCCN3)ccc12` [Compound 810], the inhibition at 0.1 µM is not below 75%.
As to `CN(C)CCN1CCc2c(NC(=O)CC34CC5CC(CC(C5)C3)C4)cccc2C1=O` [Compound 800], the inhibition at 0.1 µM lay within 50 to 75%.
As for `CCN(CC)CCn1ccc2c(NC(=O)CC34CC5CC(CC(C5)C3)C4)cccc2c1=O` [Compound 870], the inhibition at 0.1 µM is not below 75%.
On the same count and under the same terms, next, `CC12CC3CC(C)(C1)CC(CC(=O)Nc1cccc4c1CCN(CC1CCOCC1)C4=O)(C3)C2` [Compound 813]: not below 75%; `CC12CC3CC(C)(C1)CC(CC(=O)Nc1cccc4c(=O)n(Cc5ccc(C(F)(F)F)cc5)ccc14)(C3)C2` [Compound 753]: not below 75%; `Cc1cc(CN2CCc3c(NC(=O)CC45CC6CC(CC(C6)C4)C5)cccc3C2=O)no1` [Compound 801]: not below 75%.
On the same count and under the same terms, to `O=C(CC12CC3CC(CC(C3)C1)C2)Nc1cccc2c(=O)n(CCCN3CCOCC3)ccc12` [Compound 781] belongs not below 75%.
The same measure, in the same setting: to `O=C(CC12CC3CC(CC(C3)C1)C2)Nc1cccc2c(=O)n(CCN3CCSCC3)ccc12` [Compound 786] belongs not below 75%; to `O=C(CC12CC3CC(CC(C3)C1)C2)Nc1cccc2c(=O)n(C(CO)CO)ccc12` [Compound 826], not below 75%.
With `CC12CC3CC(C)(C1)CC(CC(=O)Nc1cccc4c(=O)n(Cc5ccc(S(C)(=O)=O)cc5)ccc14)(C3)C2` [Compound 759], the inhibition at 0.1 µM lay within 50 to 75%.

Staying with this experiment, now noted: at 0.3 μM (plus symbols).
Regarding `Cc1cc(Cn2ccc3c(NC(=O)CC45CC6CC(CC(C6)C4)C5)cccc3c2=O)nn1C` [Compound 719], the inhibition at 0.3 µM lay within 25 to 50%.
`Cc1cnc(CN2CCc3c(NC(=O)CC45CC6CC(CC(C6)C4)C5)cccc3C2=O)cn1` [Compound 732]: the inhibition at 0.3 µM is not below 75%.
Still for that read-out and setting: next, `O=C(CC12CC3CC(CC(C3)C1)C2)Nc1cccc2c(=O)n(Cc3ccc(F)cc3)ccc12` [Compound 703, 2-Adamantan-1-yl-N-[2-(4-fluoro-benzyl)-1-oxo-1,2-dihydro-isoquinolin-5-yl]-acetamide]: not below 75%; `C[C@@H](CO)n1ccc2c(NC(=O)CC34CC5CC(CC(C5)C3)C4)cccc2c1=O` [Compound 896]: not below 75%; `O=C(CC12CC3CC(CC(C3)C1)C2)Nc1cccc2c(=O)n(C[C@@H]3CCCO3)ccc12` [Compound 739]: not below 75%.
Take `O=C(CC12CC3CC(CC(C3)C1)C2)Nc1cccc2c(=O)n(Cc3ccccn3)ccc12` [Compound 714]: the inhibition at 0.3 µM is not below 75%.
Still for that read-out and setting: to `CC(c1ccccc1)N1CCc2c(NC(=O)CC34CC5CC(CC(C5)C3)C4)cccc2C1=O` (stereo not shown) [Compound 731] belongs not below 75%.
On the same count and under the same terms, next, `CC12CC3CC(C)(C1)CC(CC(=O)Nc1cccc4c(=O)n(Cc5ccccn5)ccc14)(C3)C2` [Compound 744]: not below 75%; `CC12CC3CC(C)(C1)CC(CC(=O)Nc1cccc4c(=O)n(CCc5c[nH]cn5)ccc14)(C3)C2` [Compound 741]: not below 75%.
As to `O=C(CC12CC3CC(CC(C3)C1)C2)Nc1cccc2c(=O)n(Cc3c(F)cccc3F)ccc12` [Compound 733], the inhibition at 0.3 µM is not below 75%.
With `CN1CCC(Cn2ccc3c(NC(=O)CC45CC6CC(C)(CC(C)(C6)C4)C5)cccc3c2=O)CC1` [Compound 746], the inhibition at 0.3 µM is not below 75%.
As to `Cc1nn(C)c(C)c1CN1CCc2c(NC(=O)CC34CC5CC(CC(C5)C3)C4)cccc2C1=O` [Compound 729], the inhibition at 0.3 µM was not below 75%.
Still for that read-out and setting: next, `O=C(CC12CC3CC(CC(C3)C1)C2)Nc1cccc2c(=O)n(Cc3ccco3)ccc12` [Compound 712]: not below 75%; `O=C(CC12CC3CC(CC(C3)C1)C2)Nc1cccc2c(=O)n(Cc3ccc(C(F)(F)F)cc3)ccc12` [Compound 713]: not below 75%; `O=C(CC12CC3CC(CC(C3)C1)C2)Nc1cccc2c(=O)n(CC3CCNCC3)ccc12` [Compound 749]: not below 75%.
In the case of `O=C(CC12CC3CC(CC(C3)C1)C2)Nc1cccc2c(=O)n(Cc3c(F)cccc3Cl)ccc12` [Compound 722], the inhibition at 0.3 µM was not below 75%.
Same read-out and setting: next, `O=C(CC12CC3CC(CC(C3)C1)C2)Nc1cccc2c(=O)n(Cc3cccnc3)ccc12` [Compound 715]: not below 75%; `CC(c1ccccc1)n1ccc2c(NC(=O)CC34CC5CC(CC(C5)C3)C4)cccc2c1=O` (stereo not shown) [Compound 711]: not below 75%.
On the same count and under the same terms, to `CC(c1ccccc1)n1ccc2c(NC(=O)CC34CC5CC(C)(CC(C)(C5)C3)C4)cccc2c1=O` (stereo not shown) [Compound 742] belongs not below 75%.

The term inhibition denotes the drop in the measured response relative to a control, in per cent.
